From US20250367218A1, “METHODS OF TREATING METABOLIC DISORDERS AND COMBINATION PRODUCTS FOR USE IN THE SAME” (INSTITUT PASTEUR DE MONTEVIDEO, priority 2024, published 2025)

Columns and labels:
[1] = Body weight of obese mice fed a high-fat diet (HFD) during treatment; type: in vivo, C57BL/6J mice
Method: (§1) All studies conducted in mice utilized C57BL/6J mice maintained at the Institut Pasteur de Montevideo Animal facility (UBAL). Experimental protocols were approved by the Institutional Animal Care and Use Committee of the Institut Pasteur de Montevideo (CEUA, Protocol numbers 003-19 and 006-19). Studies were performed according to the methods approved in the protocols. All the experiments were performed on adult male mice (10-12 weeks of age) and were conducted at either 22° C. with free access to food and water. Unless specified, mice were housed at 22° C. in groups of five.
(§2) High-fat diet (HFD) feeding: Male C57BL/6J mice housed at 22° C. were fed a high-fat diet (42% fat and 0.25% cholesterol, AlN93G, LabDiet, USA), starting at 12 weeks of age and for a duration of 5 weeks prior to beginning administration of any active pharmaceutical ingredients. After the onset of the treatment, HFD ad libitum was maintained until the end of the experiments.
Drug delivery: SANA was administered orally (PO) by mixing with the food (50, 100, or 200 mg/kg/day), or subcutaneously (SC, 10, 15, or 20 mg/kg/day in 100 mM phosphate buffer, pH 6.5). In all cases the vehicle was used as control. Liraglutide (Novo Nordisk, Denmark) was administered daily, subcutaneously (SC, 0.2 mg/kg/day). Semaglutide (Ozempic®, Novo Nordisk, Denmark) was administered subcutaneously (SC, 2 nmol/kg/day or 40 mg/kg every 3 days).
Mice were fed with a high fat diet (HFD) for 5 weeks prior to the initiation of treatment, and the high-fat diet continued during a 2-week treatment period. FIGS. 1A-1B show graphs of average mouse weight without treatment (HFD, n=8), treatment with SANA (HFD+SANA, 200 mg/kg/day, n=9), treatment with liraglutide (HFD+LIRA, 0.2 mg/kg/day, n=8), or treatment with a combination of SANA (200 mg/kg/day) and liraglutide (0.2 mg/kg/day) (HFD+SANA+LIRA, n=10).
FIGS. 3A and 3B show graphs of the average mouse weight without treatment (n=9), treatment with SANA (15 mg/kg/day, n=8), treatment with semaglutide (2 nmol/kg/day, n=10), or treatment with a combination of SANA (15 mg/kg/day) and semaglutide (2 nmol/kg/day) (n=10). Mice were fed with a high fat diet (HFD) for 5.5 weeks prior to the initiation of treatment, and the high-fat diet continued during the 3-week treatment period. Referring to FIGS. 3A and 3B, obese mice administered SANA alone (HFD+SANA) or semaglutide alone (HFD+SEMA) experienced an average weight loss of about 5% after three weeks.
In a separate experiment, different doses of subcutaneous semaglutide alone were compared to treatment with oral administration of SANA alone, and to treatment with a combination of oral SANA and two different doses of subcutaneous semaglutide. […]

[2] = Cumulative food intake of mice fed a high-fat diet (HFD); type: in vivo, C57BL/6J mice; conditions: SANA 200 mg/kg/day PO continued after 1.5 weeks of concomitant SANA plus semaglutide 10 nmol/kg/day; FIG. 6D
Method: as §1
as §2, with “experiments. […]” for “experiments.”
A higher dose of SANA was then assessed for its ability to prevent the regain of weight in mice following discontinuation of GLP-1 treatment. […] The weight regain of the mice was monitored for another 1.5-6.5 weeks. *, **, ***, #, and ## show statistically significant differences, p<0.05, p<0.01, p<0.001, p<0.05, and p<0.01, respectively. […]

[3] = Blood glucose measurements: fasting/basal glucose and glucose tolerance test (GTT) in HFD mice; type: in vivo, C57BL/6J mice; conditions: SANA 200 mg/kg/day PO after discontinuation of concomitant SANA plus semaglutide, versus semaglutide 10 nmol/kg/day alone; FIGS. 6E, 6F
Method: Blood glucose measurements: Mice were kept in fasting for 16 h before fasting glucose measurement and glucose tolerance tests (GTT). When performing GTT, mice were injected (IP) with 1.5 g/kg body weight of glucose solution. Plasma glucose concentrations were measured from blood obtained from the tail using a hand-held glucometer (Accu-Chek, Roche).
Glucose tolerance (“GTT”), basal glucose, and glucose Area Under the Curve (“AUC”) were also measured following two weeks of treatment, and the results are presented graphically in FIGS. 2A, 2B, and 2C with * indicating a statistically significant difference, p<0.05.
A higher dose of SANA was then assessed for its ability to prevent the regain of weight in mice following discontinuation of GLP-1 treatment. Referring to FIGS. 6B and 6C, mice were fed a high-fat diet for a period of 5.5 weeks, and then were untreated (HFD), treated with GLP-1 agonist (semaglutide, 10 nmol/kg/day—SC), or treated with semaglutide+SANA for a period of 1.5 weeks, at which time, the semaglutide treatment was ceased and the groups were treated only with SANA (200 mg/kg/day, PO). The weight regain of the mice was monitored for another 1.5-6.5 weeks. *, **, ***, #, and ## show statistically significant differences, p<0.05, p<0.01, p<0.001, p<0.05, and p<0.01, respectively. […]

[4] = Serum non-esterified fatty acids (NEFA) in HFD mice; type: in vivo, C57BL/6J mice; conditions: 4 weeks; SANA 200 mg/kg/day, semaglutide 2 nmol/kg/day, alone or combined; FIG. 7B
Method: As described in Example 2A above, mice were fed with a high fat diet (HFD) for 5.5 weeks prior to the initiation of treatment, and the high-fat diet continued during the 4 week treatment period. Different doses of semaglutide were provided, either alone or in combination with SANA, and compared to SANA alone and untreated mice alone. Specifically, mice were either untreated (HFD) (n=5), or treated with SANA (200 mg/kg/day, n=5), semaglutide (0.25 nmol/kg/day, n=5), semaglutide (2 nmol/kg/day, n=4), a combination of SANA (200 mg/kg/day) and semaglutide (0.25 nmol/kg/day) (n=5), or a combination of SANA (200 mg/kg/day) and semaglutide (2 nmol/kg/day) (n=3).
Next, different doses of SANA were tested, either alone or in combination with semaglutide, and compared to treatment with semaglutide alone and untreated mice. Specifically, as described in Example 2A above, mice were fed with a high fat diet (HFD) for 5.5 weeks prior to the initiation of treatment, and the high-fat diet continued during the 1.5-week treatment period. […]

[5] = Weight regain of HFD mice after discontinuation of treatment (rebound effect); type: in vivo, C57BL/6J mice
Method: Comparison of weight regain in mice following discontinuation of treatment with SANA or a GLP-1 agonist was measured in order to quantify the “rebound effect” as a result of discontinuing treatment. Mice were fed a high-fat diet for a period of 5 weeks, and were then untreated (HFD), treated with GLP-1 agonist (liraglutide, 0.2 mg/kg/day SC daily injection, LIRA), or treated with SANA (200 mg/kg/day PO) for a period of nine weeks. The high-fat diet was continued during the treatment period. Following week 9, all treatment was discontinued and weight regain in the mice was monitored through week 14.
The ability of SANA to prevent the regain of weight in mice following discontinuation of GLP-1 treatment was also assessed. Mice were fed a high-fat diet for a period of 5.5 weeks, and were then untreated (HFD), treated with GLP-1 agonist (semaglutide, 40 mg/kg s.c. every 3 days), or treated with semaglutide+SANA (10 mg/kg/day) for a period of 2.5 weeks. At week 8, except for the control group (HFD) all groups were treated only with SANA (10 mg/kg/day, s.c.).
A higher dose of SANA was then assessed for its ability to prevent the regain of weight in mice following discontinuation of GLP-1 treatment. […] The weight regain of the mice was monitored for another 1.5-6.5 weeks. *, **, ***, #, and ## show statistically significant differences, p<0.05, p<0.01, p<0.001, p<0.05, and p<0.01, respectively.

[6] = cited from earlier work
[7] = obese mice treated with SANA, WO2020058917A1 / US2023346728A1

## O=C(O)c1cc(/C=C/[N+](=O)[O-])ccc1O [SANA, 5-(2-nitroethenyl) salicylic acid]
[1]; HFD mice, nine weeks, liraglutide 0.2 mg/kg/day SC or SANA 200 mg/kg/day PO, FIG. 5
  average reduction in weight during the treatment period: 15%
[1]; obese HFD mice, after four weeks, oral SANA 200 mg/kg/day, subcutaneous semaglutide 2 nmol/kg/day, alone or concomitant, FIGS. 3E, 3F
  average weight loss: about 5%
[1]; obese HFD mice, after three weeks, SANA 15 mg/kg/day, semaglutide 2 nmol/kg/day, alone or concomitant, FIGS. 3A, 3B
  average weight loss: about 5%
[1]; obese HFD mice, after two weeks, SANA 200 mg/kg/day, liraglutide 0.2 mg/kg/day, alone or concomitant, FIGS. 1A, 1B
  weight loss: about 10%
[2]
  cumulative food intake after discontinuation of semaglutide: remained lower
[3]
  fasting glucose, lower: 55%
[4]
  drop in serum NEFA levels: little to no change
[5]; SANA 10 mg/kg/day s.c. after 2.5 weeks of semaglutide (40 mg/kg s.c. every 3 days) alone or SANA plus semaglutide, FIG. 6A
  regain of weight after discontinuation of semaglutide: prevented regain of weight
[5]; SANA 200 mg/kg/day PO after 1.5 weeks of semaglutide (10 nmol/kg/day SC) alone or SANA plus semaglutide, FIGS. 6B, 6C
  regain of weight after discontinuation of semaglutide: prevented regain of weight
[6]; mice under diet-induced obesity (DIO), by activating creatine-dependent thermogenesis
  thermogenesis and beiging of white adipose tissue: stimulates thermogenesis and beiging of white adipose tissue
[6]; [7]
  fat accretion: resistance to fat accretion
  glucose intolerance: improved glucose intolerance
  liver steatosis: absence of liver steatosis
  response to cold challenge: improved response to cold challenge
